# Measured values: patent US9040725B2, “Benzocycloheptane and benzoxepine derivatives” (Janssen Pharmaceutica NV, priority 2008, dated 2015)
# Where a name gives a salt, the structure may show the parent alone. Read-outs that look alike come from different tables or passages of the source. Ends that are not written are not given here.
# How the values were obtained:
# GHS1A-receptor = molecular target: T1, GHS1A-receptor (Homo sapiens, UniProt Q92847); test: Ghrelin-agonism in HEK293 cells (intracellular calcium, FLIPR); type: cell-based; conditions: HEK293 cells permanently transfected with GHS1A-receptor, calcium fluorescence (fluo-4 or Kit-3), EC50 in M, read-out: pEC50 (converted)
# T1 construct: expressed in transfected cells; host or cells: HEK293
# Method: One day before the experiment, HEK293 cells, permanently transfected with the gene sequence for expression of the GHS1A-receptor, were seeded in poly-D-Lysine coated 96-well plates with clear bottom, and allowed to grow to […] of confluence on the next day.
# Then, cells were incubated with the calcium-sensitive intracellular fluorescent probe fluo-4 or Kit-3 for 1 h at 37° C. Fluorescence representing free intracellular calcium in the cells was measured in a FLIPR-system (excitation at 488 nm, emission>520 nm). Test compounds were added to each well at the desired concentration and the fluorescence signal was simultaneously recorded in all wells. Release of intracellular calcium triggered by activation of the receptors upon addition of the test compound was measured as the fluorescence emitted from the complex of calcium and the fluorescent probe. The drug effect on fluorescence intensity was expressed relative to the maximal fluorescence intensity measured in cells exposed to the calcium-ionophore ionomycin.
# mice = test: In house study: gastric emptying of a test meal after intravenous ghrelin in mice; type: in vivo; conditions: intravenous administration to mice; 95% confidence interval 0.058-0.174
# Source text: (§1) These observations confirm that the gastrointestinal pro-kinetic properties of ghrelin-ligands are mediated by direct interaction with GHS1A-r. Small molecules showing affinity for the GHS1A-r and activating it are therefore anticipated to stimulate gastrointestinal motility in general, and gastric emptying in particular.
# [1] = system: transgenic mice with a deletion of GHS1A-r; test: In house study: gastric emptying after ghrelin in transgenic mice with a deletion of GHS1A-r; type: in vivo; conditions: administered up to 2.5 mg/kg
# Source text: as §1
# NMRI-mice = test: Acceleration of gastric emptying and small intestinal propulsion in NMRI-mice; type: in vivo; conditions: Mus musculus, sc, lowest active dose, subcutaneous, 30 min before phenol red test meal
# Method: (§2) Male NMRI-mice weighing around 25 gram were fasted for 20 h and had free access to drinking water. Test compounds were administered to the animals by subcutaneous route 30 min before they were given a test meal by oral gavage. The test meal consisted of 0.3 ml of a chocolate nutridrink solution (1.0 kcal/ml) containing phenol red marker (5 mg/ml). Fifteen min after administration of the meal, the mice were sacrificed by CO2 gas inhalation. The phenol red content remaining in the stomach (extracted from the stomach with NaOH) was determined at 557 nm in a spectrophotometer and expressed as extinction units. Small intestinal propulsion was determined as the distance traveled by the phenol red marker through the intestine and expressed as a percentage of total small intestinal length (from the pylorus to the ileo-cecal junction).
# The lowest dose that was active for each parameter was noted as the lowest active dose (LAD). Table 12 discloses LAD values.
# GHS1A-r+/+ (WT) mice = test: Acceleration of gastric emptying in wild type (GHS1A-r+/+, WT) mice; type: in vivo; conditions: 10 mg/kg subcutaneous 30 minutes before test meal, 15 minutes after meal
# Method: (§3) FIG. 1 describes the gastric content (measured as extinction units of phenol red) remaining 15 minutes after administration of a phenol red containing test meal by oral gavage in GHS1A-r^+/+ (WT) and GHS1A-r^−/− (KO) mice pretreated with saline (Vehicle) or compound 3 (10 mg/kg SC) 30 minutes before the meal (individual data and mean, n=3).
# as §2, with “junction). […]” for “junction).”
# GHS1A-r-/- (KO) mice = test: Acceleration of gastric emptying in GHS1A-r-/- (KO) mice; type: in vivo; conditions: 10 mg/kg subcutaneous 30 minutes before test meal, 15 minutes after meal
# Method: as §3
# as §2, with “junction). […]” for “junction).”
# [2] = active when >60% of animals had phenol red front beyond 85% of small intestinal length, read-out: LAD (mg/kg) Small intestinal propulsion
# [3] = stomach content 15 min after meal, active when >60% of animals below 0.9 extinction units, read-out: LAD (mg/kg) Gastric emptying
# T1 sequence (Q92847 whole entry): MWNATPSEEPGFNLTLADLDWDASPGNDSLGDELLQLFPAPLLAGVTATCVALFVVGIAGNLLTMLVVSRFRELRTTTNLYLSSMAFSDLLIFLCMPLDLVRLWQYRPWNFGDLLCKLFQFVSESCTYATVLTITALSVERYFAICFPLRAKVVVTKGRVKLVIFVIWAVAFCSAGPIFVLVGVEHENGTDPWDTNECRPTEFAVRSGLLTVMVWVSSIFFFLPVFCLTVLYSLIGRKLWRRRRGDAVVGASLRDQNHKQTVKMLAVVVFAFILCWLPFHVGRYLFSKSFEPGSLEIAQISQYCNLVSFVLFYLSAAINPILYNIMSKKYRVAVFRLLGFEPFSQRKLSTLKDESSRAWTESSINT
Compound,EC50 (GHS1A-receptor) [nM],melting point [°C],other results
CN(C)CCCC1(O)c2ccccc2CCCC1c1cncnc1 (racemic) [Compound 84],7940,134.3,
"ghrelin (GSSFLSPEHQRVQQRKESKKPPAKLQPR; ends and bridges not checked; UniProt Q9UBU3 24-51, looked up) [""an endogenous peptide hormone ... the natural ligand for the type 1 growth hormone secretagogue receptor (GHS1A-r)""]",,,ED50 stimulation of gastric emptying of a test meal (mice): 0.100 mg/kg; effect on gastric emptying [1]: no effect
COCCN(C)CCCC1(O)c2ccccc2CCCC1c1ccc(F)cc1F (racemic) (as salt: oxalate) [Compound 58],,140,
CCN(CC)CCCC1(O)c2ccccc2CCCC1c1ccc(O)cc1 (racemic) [Compound 36],6310,141.4,
CNCCCC1(O)c2ccccc2CCCC1c1ccccc1 (racemic) (as salt: oxalate) [Compound 19],,129,
CCN(CC)CCCC1(O)c2ccccc2CCCC1c1ccc(C)cc1 (racemic) (as salt: oxalate) [Compound 31],,158.6,
"COc1cccc([C@H]2CCCc3ccccc3[C@]2(O)CCCN(C)C)c1 (racemic) (as salt: oxalate) [Compound 14, (±)cis-5-(3-Dimethylamino-propyl)-6-(3-methoxy-phenyl)-6,7,8,9-tetrahydro-5H-benzocyclohepten-5-ol oxalate]",,108,
OC1(CCCN2CCCCC2)c2ccccc2CCCC1c1ccc(Cl)cc1 (racemic) (as salt: oxalate) [Compound 50],,201.1,
CN(C)CCCC1(O)c2ccccc2CCCC1c1cnc2ccccc2c1 (racemic) [Compound 85],100,150.3,minimal effective dose (NMRI-mice; [2]): > 10 mg/kg; minimal effective dose (NMRI-mice; [3]): > 10 mg/kg
COCCN(C)CCCC1(O)c2ccccc2CCCC1c1ccc(O)cc1 (racemic) (as salt: oxalate) [Compound 37],,191.1,
COc1cccc(C2CCCc3ccccc3C2(O)CCCN2CCN(C(C)=O)CC2)c1 (racemic) [Compound 63],> 10000,153,
Cc1ccc(C2CCCc3ccccc3C2(O)CCCN2CCCC2)cc1 (racemic) [Compound 28],158,139.8,minimal effective dose (NMRI-mice; [2]): > 10 mg/kg; minimal effective dose (NMRI-mice; [3]): > 10 mg/kg
COc1ccc(C2CCCc3ccccc3C2(O)CCCN2CCN(C(C)=O)CC2)cc1 (racemic) [Compound 71],> 10000,165.1,
"CN(C)CCCC1(O)c2ccccc2CCCC1c1ccc(Cl)cc1 (single isomer, unassigned) [Compound 3]",20,,minimal effective dose (NMRI-mice; [2]): 0.63 mg/kg; minimal effective dose (NMRI-mice; [3]): 0.63 mg/kg; meal content remaining in the stomach versus vehicle (GHS1A-r+/+ (WT) mice): emptied more than vehicle treated WT mice; meal content remaining in the stomach versus vehicle (GHS1A-r-/- (KO) mice): no difference in remaining gastric content
OC1(CCCN2CCCC2)c2ccccc2CCCC1c1ccccc1 (racemic) (as salt: oxalate) [Compound 21],,202,
Oc1ccc([C@H]2CCCc3ccccc3[C@]2(O)CCCN2CCOCC2)cc1 (relative stereo) [Compound 7],,177.1,
COc1ccc(C2CCCc3ccccc3C2(O)CCCN(C)C)cc1 (racemic) (as salt: oxalate) [Compound 66],,100,
CCN(CC)CCCC1(O)c2ccccc2CCCC1c1ccc(Cl)cc1 (racemic) (as salt: HCl) [Compound 46],,189.8,
Cc1cccc(C2CCCc3ccccc3C2(O)CCCN2CCOCC2)c1 (racemic) (as salt: oxalate) [Compound 25],,204.8,
CNCCCC1(O)c2ccccc2CCCC1c1cccc(C)c1 (racemic) (as salt: oxalate) [Compound 22],,137.4,
CC(=O)N1CCN(CCCC2(O)c3ccccc3CCCC2c2ccc(C)cc2)CC1 (racemic) [Compound 34],3160,216.2,
CN(C)CCC[C@@]1(O)c2ccccc2OCC[C@@H]1c1ccccc1 (relative stereo) (as salt: oxalate) [Compound 8],,136,
CCN(CC)CCCC1(O)c2ccccc2CCCC1c1cccc(Cl)c1 (racemic) (as salt: oxalate) [Compound 41],,160.3,
CC(C)NCCCC1(O)c2ccccc2CCCC1c1cnc2ccccc2c1 (racemic) [Compound 86],631,115.2,
